≈ marks a conversion by molar mass, not a printed value. Calls of active or inactive are those of the source. No cut-off for these calls is given here.
Legend:
[1] = biological target: Histone deacetylase; assay: Inhibition of HDAC in human HeLa cells assessed as histone H3 hyperacetylation; type: cell-based
[2] = (§1) Cytotoxicity against human […] cells; type: functional, cell-based
[3] = system: HCT-116; assay: Cytotoxicity against human HCT116 cells; type: functional, cell-based
[4] = Cytotoxicity against human MJ cells; type: functional, cell-based
[5] = system: HL-60; assay: Cytotoxicity against human HL60 cells; type: functional, cell-based
[6] = system: SK-OV-3; assay: Cytotoxicity against human SKOV3 cells; type: functional, cell-based
[7] = system: Mus musculus; assay: Induction of histone H3 hyperacetylation in human HCT116 cells xenografted in nude mouse at 42 mg/kg, po by immunoblotting relative to control; type: functional, HCT-116
[8] = system: MDA-MB-435; assay: Cytotoxicity against human MDA-MB-435 cells; type: functional, cell-based
[9] = system: 786-0; assay: Cytotoxicity against human 786-0 cells; type: functional, cell-based
[10] = system: HCT-116; assay: Antitumor activity against human HCT116 cells xenografted in nude mouse assessed as tumor growth inhibition at 42 mg/kg, po QOD for 14 days relative to control; type: functional; design: scale not given: the % may be the effect or the level left
[11] = system: Mus musculus; assay: Induction of histone H3 hyperacetylation in human HCT116 cells xenografted in nude mouse at 42 mg/kg, iv by immunoblotting relative to control; type: functional, HCT-116
[12] = system: HCT-116; assay: Antitumor activity against human HCT116 cells xenografted in nude mouse assessed as tumor growth inhibition at 84 mg/kg, po QOD for 14 days relative to control; type: functional; design: scale not given: the % may be the effect or the level left
[13] = system: NCI-H460; assay: Cytotoxicity against human H460 cells; type: functional, cell-based
[14] = system: PC-3; assay: Cytotoxicity against human PC3 cells; type: functional, cell-based
[15] = system: HT-29; assay: Cytotoxicity against human HT-29 cells; type: functional, cell-based
[16] = system: U226; assay: as §1; type: functional, cell-based
[17] = biological target: Cytochrome P450 2C9 (Homo sapiens, UniProt P11712); assay: Inhibition of CYP2C9; type: ADME
[18] = biological target: Cytochrome P450 2C19 (Homo sapiens, UniProt P33261); assay: Inhibition of CYP2C19; type: ADME
[19] = Aqueous solubility of the compound; type: physicochemical; conditions: buffer
[20] = biological target: Voltage-gated inwardly rectifying potassium channel KCNH2 (Homo sapiens, UniProt Q12809); assay: Inhibition of human ERG by patch-clamp assay
[21] = biological target: Cytochrome P450 2D6 (Homo sapiens, UniProt P10635); assay: Inhibition of CYP2D6; type: ADME
[22] = biological target: T1, Cytochrome P450 1A2 (Homo sapiens, UniProt P05177); assay: Inhibition of CYP1A2; type: ADME
T1 sequence (P05177 whole entry): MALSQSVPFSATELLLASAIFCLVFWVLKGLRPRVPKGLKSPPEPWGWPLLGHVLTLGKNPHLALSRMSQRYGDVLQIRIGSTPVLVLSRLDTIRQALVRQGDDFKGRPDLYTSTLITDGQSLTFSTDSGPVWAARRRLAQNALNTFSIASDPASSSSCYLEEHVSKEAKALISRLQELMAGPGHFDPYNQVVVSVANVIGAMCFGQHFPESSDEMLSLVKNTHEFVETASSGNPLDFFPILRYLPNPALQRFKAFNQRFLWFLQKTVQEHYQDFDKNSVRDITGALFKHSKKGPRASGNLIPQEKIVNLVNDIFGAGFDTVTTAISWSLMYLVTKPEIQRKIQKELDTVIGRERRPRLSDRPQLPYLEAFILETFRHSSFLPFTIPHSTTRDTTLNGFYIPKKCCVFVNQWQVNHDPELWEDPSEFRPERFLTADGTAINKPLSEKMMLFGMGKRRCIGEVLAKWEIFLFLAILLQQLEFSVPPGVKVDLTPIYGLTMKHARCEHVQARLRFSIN

[23] = system: Mus musculus; assay: Induction of histone H3 hyperacetylation in human HCT116 cells xenografted in nude mouse at 30 mg/kg, po after 4 hrs by immunoblotting relative to control; type: functional, organism-based; design: dose 30 mg/kg; conditions: HCT-116
[24] = system: Mus musculus; assay: Induction of histone H3 hyperacetylation in human HCT116 cells xenografted in nude mouse at 30 mg/kg, po after 8 hrs by immunoblotting relative to control; type: functional, organism-based; design: dose 30 mg/kg; conditions: HCT-116
[25] = biological target: Cytochrome P450 3A4 (Homo sapiens, UniProt P08684); assay: Inhibition of CYP3A4; type: ADME
[26] = system: Mus musculus; assay: Induction of histone H3 hyperacetylation in human HCT116 cells xenografted in nude mouse at 50 mg/kg, po by immunoblotting relative to control; type: functional, HCT-116

Chain of Voltage-gated inwardly rectifying potassium channel KCNH2 (Q12809 whole entry): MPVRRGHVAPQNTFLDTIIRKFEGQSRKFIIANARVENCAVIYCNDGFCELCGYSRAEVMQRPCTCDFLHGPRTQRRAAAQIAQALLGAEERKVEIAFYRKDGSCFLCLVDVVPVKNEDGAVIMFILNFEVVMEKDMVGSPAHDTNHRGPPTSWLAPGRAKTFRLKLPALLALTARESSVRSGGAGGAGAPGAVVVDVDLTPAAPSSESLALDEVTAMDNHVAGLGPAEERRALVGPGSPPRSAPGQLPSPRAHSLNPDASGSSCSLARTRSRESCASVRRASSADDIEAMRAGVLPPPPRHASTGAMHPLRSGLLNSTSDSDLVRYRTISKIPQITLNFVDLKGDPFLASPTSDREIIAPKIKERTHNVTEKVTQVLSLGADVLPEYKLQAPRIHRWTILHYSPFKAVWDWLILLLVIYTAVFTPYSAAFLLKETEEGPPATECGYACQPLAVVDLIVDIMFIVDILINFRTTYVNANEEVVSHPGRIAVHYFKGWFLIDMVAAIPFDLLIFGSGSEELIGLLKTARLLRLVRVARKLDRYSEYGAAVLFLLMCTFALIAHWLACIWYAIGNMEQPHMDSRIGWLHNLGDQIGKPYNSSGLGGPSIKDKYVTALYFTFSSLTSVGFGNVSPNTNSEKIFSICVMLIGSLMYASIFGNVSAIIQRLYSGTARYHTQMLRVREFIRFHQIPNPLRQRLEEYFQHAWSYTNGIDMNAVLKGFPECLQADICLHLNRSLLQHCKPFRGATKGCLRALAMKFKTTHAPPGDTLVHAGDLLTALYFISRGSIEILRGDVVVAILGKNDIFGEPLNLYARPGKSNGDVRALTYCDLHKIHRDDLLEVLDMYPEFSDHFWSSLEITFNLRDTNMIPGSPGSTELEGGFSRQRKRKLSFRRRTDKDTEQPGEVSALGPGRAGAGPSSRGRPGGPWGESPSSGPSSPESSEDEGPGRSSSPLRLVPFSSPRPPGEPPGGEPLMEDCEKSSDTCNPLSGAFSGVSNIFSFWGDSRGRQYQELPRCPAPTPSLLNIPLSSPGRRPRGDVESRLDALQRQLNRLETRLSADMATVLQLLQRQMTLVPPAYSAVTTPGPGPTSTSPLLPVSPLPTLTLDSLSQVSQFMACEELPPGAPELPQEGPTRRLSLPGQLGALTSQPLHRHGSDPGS
Chain of Cytochrome P450 2C9 (P11712 whole entry): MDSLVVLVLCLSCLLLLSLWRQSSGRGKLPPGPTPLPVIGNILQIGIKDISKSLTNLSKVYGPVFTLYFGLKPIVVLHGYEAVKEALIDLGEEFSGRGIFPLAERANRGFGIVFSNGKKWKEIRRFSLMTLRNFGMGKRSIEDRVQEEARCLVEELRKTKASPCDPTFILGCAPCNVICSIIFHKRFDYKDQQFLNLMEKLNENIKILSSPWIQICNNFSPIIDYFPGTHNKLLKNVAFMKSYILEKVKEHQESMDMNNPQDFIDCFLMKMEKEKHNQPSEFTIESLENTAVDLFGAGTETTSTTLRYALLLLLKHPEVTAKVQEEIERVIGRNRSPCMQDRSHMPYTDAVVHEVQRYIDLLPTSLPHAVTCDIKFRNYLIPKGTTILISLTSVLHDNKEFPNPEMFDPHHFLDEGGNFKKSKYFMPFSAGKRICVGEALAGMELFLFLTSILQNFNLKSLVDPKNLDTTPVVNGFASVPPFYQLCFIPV
Chain of Cytochrome P450 2D6 (P10635 whole entry): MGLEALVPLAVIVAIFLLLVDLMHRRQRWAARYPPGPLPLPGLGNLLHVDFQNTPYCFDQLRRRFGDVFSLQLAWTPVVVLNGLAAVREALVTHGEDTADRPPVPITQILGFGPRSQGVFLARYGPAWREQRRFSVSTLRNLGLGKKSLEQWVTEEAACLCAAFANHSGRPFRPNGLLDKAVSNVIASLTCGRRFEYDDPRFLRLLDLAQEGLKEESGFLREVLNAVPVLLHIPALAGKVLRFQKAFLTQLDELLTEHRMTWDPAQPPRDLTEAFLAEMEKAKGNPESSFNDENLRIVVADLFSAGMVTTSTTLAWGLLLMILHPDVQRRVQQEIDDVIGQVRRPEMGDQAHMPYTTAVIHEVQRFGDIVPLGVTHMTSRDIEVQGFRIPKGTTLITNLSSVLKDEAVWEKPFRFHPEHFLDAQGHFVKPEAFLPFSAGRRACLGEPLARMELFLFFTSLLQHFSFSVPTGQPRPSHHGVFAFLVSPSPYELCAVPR
Chain of Cytochrome P450 2C19 (P33261 whole entry): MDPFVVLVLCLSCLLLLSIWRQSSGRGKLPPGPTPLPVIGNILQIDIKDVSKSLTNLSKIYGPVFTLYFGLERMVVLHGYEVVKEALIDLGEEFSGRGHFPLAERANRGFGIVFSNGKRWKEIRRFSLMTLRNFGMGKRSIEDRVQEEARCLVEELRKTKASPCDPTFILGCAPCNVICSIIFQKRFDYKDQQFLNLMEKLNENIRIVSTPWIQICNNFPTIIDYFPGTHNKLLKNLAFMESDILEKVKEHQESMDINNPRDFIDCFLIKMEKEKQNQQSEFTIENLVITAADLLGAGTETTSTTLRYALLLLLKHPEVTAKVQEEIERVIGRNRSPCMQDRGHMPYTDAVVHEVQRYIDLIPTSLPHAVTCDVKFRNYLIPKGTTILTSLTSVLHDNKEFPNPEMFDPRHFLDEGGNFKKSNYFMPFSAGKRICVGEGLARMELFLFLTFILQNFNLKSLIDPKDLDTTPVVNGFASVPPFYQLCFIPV
Chain of Cytochrome P450 3A4 (P08684 whole entry): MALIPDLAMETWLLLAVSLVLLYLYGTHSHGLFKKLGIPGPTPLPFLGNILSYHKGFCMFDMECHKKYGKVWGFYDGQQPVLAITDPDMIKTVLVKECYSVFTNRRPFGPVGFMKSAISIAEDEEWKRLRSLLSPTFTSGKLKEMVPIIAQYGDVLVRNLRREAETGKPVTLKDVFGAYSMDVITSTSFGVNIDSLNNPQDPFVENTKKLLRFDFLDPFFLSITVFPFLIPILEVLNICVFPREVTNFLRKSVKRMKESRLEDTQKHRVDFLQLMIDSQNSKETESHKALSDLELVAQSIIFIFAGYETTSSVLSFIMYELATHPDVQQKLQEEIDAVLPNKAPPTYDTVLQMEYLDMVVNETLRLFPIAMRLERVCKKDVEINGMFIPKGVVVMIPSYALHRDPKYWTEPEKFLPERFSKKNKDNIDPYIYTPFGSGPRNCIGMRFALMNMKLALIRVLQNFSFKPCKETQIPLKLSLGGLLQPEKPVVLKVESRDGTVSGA

EC50 [1] | SMILES | EC50 [2] | EC50 [3] | further results
61 nM | CC(=O)SCC(=O)c1ccc(NS(=O)(=O)c2ccc(OCCCN3CCCC3)cc2)nc1 | 400 nM | 820 nM | –
45 nM | CC(=O)SCC(=O)c1ccc(NS(=O)(=O)c2ccc(OCCCN(C)C)cc2)nc1 [listing 1 of 2 here] | 180 nM | 140 nM | EC50 [4]: 170 nM; EC50 [5]: 390 nM; EC50 [6]: 760 nM; fold change (FC) [7]: 9; EC50 [8]: 180 nM; EC50 [9]: 590 nM; Activity [10]: 44%; fold change (FC) [11]: 12; Activity [12]: 25%; EC50 [13]: 230 nM; EC50 [14]: 740 nM; EC50 [15]: 1000 nM
93 nM | CC(=O)SCC(=O)c1ccc(NS(=O)(=O)c2ccc(OCCN(C)C)cc2)nc1 | – | 660 nM | Activity [16]: inactive
29 nM | CC(=O)SCC(=O)c1ccc(NS(=O)(=O)c2ccc(OCCCCN(C)C)cc2)nc1 | 120 nM | 280 nM | –
220 nM | CC(=O)SCC(=O)c1ccc(NS(=O)(=O)c2ccc(OCc3ccccn3)cc2)nc1 | – | 420 nM | –
220 nM | CC(=O)SCC(=O)c1ccc(NS(=O)(=O)c2ccc(OCCCc3ccccn3)cc2)nc1 | – | – | –
– | Br.CC(=O)SCC(=O)c1ccc(NS(=O)(=O)c2ccc(OCCCN(C)C)cc2)nc1 | – | – | EC50 [17]: > 50000 nM; EC50 [18]: > 50000 nM; solubility [19]: 10000 µg/mL; EC50 [20]: > 30000 nM; EC50 [21]: > 50000 nM; EC50 [22]: > 50000 nM
120 nM | COCCCOc1ccc(S(=O)(=O)Nc2ccc(C(=O)CSC(C)=O)cn2)cc1 | 29000 nM | 5300 nM | –
190 nM | CC(=O)SCC(=O)c1ccc(NS(=O)(=O)c2ccc(OCCc3ccccn3)cc2)nc1 | 9600 nM | 750 nM | –
110 nM | CC(=O)SCC(=O)c1ccc(NS(=O)(=O)c2ccc(OC3CCCN(C)C3)cc2)nc1 (stereo not given) | 1200 nM | 3700 nM | –
67 nM | CC(=O)SCC(=O)c1ccc(NS(=O)(=O)c2ccc(OCCCN3CCOCC3)cc2)nc1 | 19000 nM | 330 nM | –
– | CC(=O)SCC(=O)c1ccc(NS(=O)(=O)c2ccc(OCCCN(C)C)cc2)nc1 [listing 2 of 2 here] | – | – | Activity [23]: Active; Activity [24]: Active
29 nM | COc1ccc(S(=O)(=O)Nc2ccc(C(=O)CSC(C)=O)cn2)cc1 | – | 540 nM | –
53 nM | CC(=O)SCC(=O)c1ccc(NS(=O)(=O)c2ccc(OCCCN3CCCCC3)cc2)nc1 | 800 nM | 1000 nM | –
110 nM | CC(=O)SCC(=O)c1ccc(NS(=O)(=O)c2ccc(OCCCO)cc2)nc1 | – | 8600 nM | –
44 nM | CC(=O)SCC(=O)c1ccc(NS(=O)(=O)c2ccc(OC3CCN(C)CC3)cc2)nc1 | 300 nM | 180 nM | –
190 nM | COc1cccc(S(=O)(=O)Nc2ccc(C(=O)CSC(C)=O)cn2)c1 | – | 4300 nM | –

SMILES | EC50 [1] | EC50 [2] | EC50 [3] | further results
CC(=O)SCC(=O)c1ccc(NS(=O)(=O)c2ccc3c(c2)COOC3)nc1 | 38 nM | 2000 nM | 1200 nM | EC50 [17]: 10000 nM; EC50 [18]: > 50000 nM; solubility [19]: 200 µg/mL (≈ 490 µM); EC50 [20]: > 30000 nM; EC50 [21]: > 50000 nM; EC50 [22]: > 50000 nM; EC50 [25]: > 50000 nM; fold change (FC) [26]: 5
